Results on five compounds are retold here after patent US7262336B2 (priority 2000, dated 2007).

Common to all, as to assay type: in vivo, rat
Series [1] relates to Gαq mutant transgenic rats. As to the kind of experiment: Pilocarpine-induced cholinergic signs and convulsions in Gq transgenic rats. The protocol: Muscarinic cholinergic agonists produce a series of cholinergic signs (chromodacryrhea, salivation, diarrhea, hypoactivity, tremors, foaming, convulsions and death) at high doses via a Gαq modulated pathway. Studies were conducted with the muscarinic agonist pilocarpine to determine if muscarinic agonist activity was modified in the transgenic rats (FIG. 28). Studies were conducted with the muscarinic agonist pilocarpine to determine if muscarinic agonist activity was modified by acute lithium (FIG. 29 or chronic lithium (FIG. 30). Both acute and chronic lithium potentiated the cholinergic signs produced by pilocarpine.

Series [2] has as its system Gαq mutant transgenic rats. Put plainly: DOI induced headshakes and lethality in Gq transgenic rats. The conditions noted are these: for number of headshakes: 0.1 mg/kg. The protocol: (§1) In general, 10 male and 10 female heterozygotes of each line were compared with a similar number of wild-type littermate controls. Testing began at 7-8 weeks of age. Subjects were individually housed in hanging metal mesh cages with ad libitum access to food and water under a 12 h light/dark cycle. For Lines 76, 67, and 11 the subjects were maintained on powdered rodent chow for the duration of the study. Subjects from Lines 58 and 75 were adapted to powdered chow for the feeding studies and then maintained on that chow for the remainder of the study. Subjects were evaluated in a series of tests outlined below over a period of approximately 12 weeks.
Wild type and transgenic rats were injected ip with either vehicle or DOI (0.001, 0.01, 0.1, 1.0 mg/kg) and were then housed singly in clear Plexiglas chambers (10″×18″×8″) for observational studies. A trained observer counted the number of headshakes for each rat during 2 observation periods (0-30 min; 45-75 min).
Assessing the effect of the RGS insensitive Gαq mutant transgene on receptors coupled via Gαq to the IP3 pathway in transgenic rats was an interest. 5-HT2A agonists produce large increases in headshakes in rats via this pathway. DOI (−1[2,5-dimethoxy-4-iodophenyl]-2-aminopropane) is a 5-HT2A receptor agonist, which increases headshakes in rats, and it has been used to investigate this pathway (Wettstein et al., 1999). DOI administration was used herein to determine if 5-HT2A agonist activity was modified in transgenic rats; results are shown in FIG. 27.

For series [3], the system named is normal Sprague-Dawley rats. As to the kind of experiment: DOI lethality in normal rats (separate experiments). The conditions noted are these: doses as high as 30 mg/kg. As to the method: Higher doses of DOI (3-10 mg/kg) were required to produce similar effects in line 11 (data not shown).
Series [4] deals with Gαq mutant transgenic rats. As to the kind of experiment: Food intake after RO 60-0175 in Gq transgenic rats vs wild-type littermates. The protocol: as §1
Wild-type and transgenic rats were maintained on powdered chow in their home cages. Rats were fasted for 24 h prior to evaluation of food intake. Food intake was measured at 2, 4, and 24 h timepoints following ip injection of vehicle, 1, or 1.7 mg/kg RO 60-0175. Experimental sessions were generally conducted on Tues and Fri with 24 h fasts initiating on Mon and Thurs. […] 5-HT2C agonists decrease food intake via a Gαq modulated pathway. Studies using the selective 5-HT2C agonist RO 60-0175 were conducted to determine if 5-HT2C agonist activity was modified in transgenic rats.
To account for the baseline differences in food intake between wild-type and transgenic rats, the effects of RO 60-0175 were calculated as a percentage of the vehicle food intake. The effects of 1.7 mg/kg RO 60-0175 were greater in both males and females for transgenic heterozygotes for lines 75 and 67 (FIG. 7). The effects of 1.0 mg/kg RO 60-0175 were greater in males of line 67 as well (data not shown). […] There was no change in the effects of RO 60-0175 in rats from lines 58, 76, or 11.

Series [5] deals with Gαq mutant transgenic rats. As to the kind of experiment: Stimulant-induced locomotor activity (d-amphetamine, phencyclidine) in Gq transgenic rats. As to the method:
as §1
To complement the observations of motor activity obtained using the open field test, heterozygotes and wildtype littermate controls were evaluated for spontaneous locomotor activity using an automated data collection system and a more extended test period. Data in this test was collected in multiple time bins over the test period allowing for some assessment of both the exploratory activity level in a novel environment as well as the rate of habituation to that environment. Having habituated the subjects, a stimulant was administered to determine the responsiveness of these subjects to the stimulant using locomotor activity as a measure. In this study we used an indirect-acting dopamine agonist, d-amphetamine, and a NMDA excitatory amino acid antagonist, phencyclidine, to induce locomotion. The ability of d-amphetamine to increase motor activity is dependent on dopaminergic neurotransmission in the striatum, in particular the nucleus accumbens, but can be influenced by other neurotransmitters. The ability of phencyclidine to induce locomotor activity is dependent on changes in both dopamine and glutatmate neurotransmission (Adams and Moghaddam, J. Neurosci. 1998, 18:5545-54). The differences in locomotor activity observed under spontaneous and stimulant-induced conditions in heterozygotes vs. wildtype littermate controls are summarized in FIGS. 15 and 16.
Subjects were placed in activity monitors (Model RXYZCM16, Omnitech, Columbus, Ohio) equipped with infrared beams to detect movements on both the horizontal (16×16 in field) and vertical axes. The testing room was equipped with white noise. Following a 60 min habituation period during which activity was monitored for differences in spontaneous locomotor activity, each subject was treated with a dose of 1 mg/kg d-amphetamine ip and returned to the activity monitor. Activity induced by d-amphetamine was monitored for 2 h. On a separate occasion, these same subjects were placed in the activity monitors and allowed to habituate for 60 min. Following this re-habituation, each subject was treated with 10 mg/kg phencyclidine ip and monitored for activity for an additional 4 h. The doses of d-amphetamine and phencyclidine were selected based on other studies as doses that induce a hyperactive state in normal rats (see Adams and Moghaddam, supra; Krebs-Thomson et al., Fur. J. Pharmacol. 1998, 343:135-43). Data were analyzed using LSD following a 2-way ANOVA (transgene×time) with one repeated measure (time). Outcomes were determined significant at p<0.05.

As for `CC[C@@H]1C(=O)OC[C@@H]1Cc1cncn1C` [Pilocarpine, pilocarpine], the “Muscarinic Agonist (Pilocarpine) Convulsions, Death” value in series [1] (Gαq mutant Transgenics, cell wraps: 3 of 3 lines tested conv and death (10–30 mg/kg)) was 3 of 3 lines tested conv. Further, in series [1] (Gαq mutant Transgenics, cell wraps: 3 of 3 lines tested ↑ cholinergic signs), the “Muscarinic Agonist (Pilocarpine) Induction of cholinergic signs” value is 3 of 3 lines tested ↑. Also, the “sensitivity of the transgenic rats to the muscarinic agonist” value in series [1] (transgenic rats) was “increased sensitivity”.

Consider `COc1cc(CC(C)N)c(OC)cc1I` (stereo not shown) [DOI, −1[2,5-dimethoxy-4-iodophenyl]-2-aminopropane], for which the number of headshakes result in series [2] (line 67 male transgenic heterozygote rats) is recorded as “trend toward increased headshakes”; in series [2] (line 75 male transgenic heterozygote rats) it was “increased”. For the same compound, the lethality result is reported as “found dead within 24 hours” in series [2] (1 mg/kg, transgenic rats from lines 58, 75, 67 and 76); “did not result in lethality” in series [3]. Besides, the “5-HT2A Agonist (DOI) Induction of Head Shakes” value in series [2] (Gαq mutant Transgenics, cell wraps: 4 of 5 lines ↓ headshakes) is on record as 4 of 5 lines ↓. For the same compound, the “5-HT2A Agonist (DOI) Flattened Body Posture, Convulsions, Death” value in series [2] (Gαq mutant Transgenics, cell wraps: FBP, conv and death at 1.0 mg/kg, higher doses required for line 11) is reported as 4 of 5 lines show FBP,. The “doses required to produce similar effects (lethality)” value in series [2] (transgenic line 11) is 3 to 10 mg/kg.

With `C[C@H](N)Cn1ccc2cc(F)c(Cl)cc21` [RO 60-0175], the “effect on food intake as percentage of vehicle food intake, transgenic vs wild-type” value in series [4] (1.0 mg/kg ip, line 75 females) was “greater in wildtype than in transgenic rats”. The “effect on food intake as percentage of vehicle food intake, transgenic heterozygotes vs wild-type” value in series [4] (1.0 mg/kg ip, males of line 67) is given as “greater”; in series [4] (1.7 mg/kg ip, males and females, lines 75 and 67) it was “greater”. Moreover, the “5-HT2C Agonist (RO60-0175) Inhibition of Food Intake” value in series [4] (Gαq mutant Transgenics, cell wraps: 2 of 5 lines ↑sensitivity to RO 60-0175) is 2 of 5 lines. Besides, in series [4] (lines 58, 76, or 11), the “change in effect on food intake, transgenic vs wild-type” value is “no change”.

On to `C[C@H](N)Cc1ccccc1` [d-amph, d-amphetamine], for which the “amphetamine-induced locomotor activity, heterozygotes vs wildtype” value in series [5] (1 mg/kg ip, males of Lines 58, 75, 67, 11 and females of Line 67, 76, 11, but not males of Line 76) is “reduced amphetamine-induced locomotor activity”. In addition, the “Indirect DA agonist (d-amph) Locomotor Activity” value in series [5] (Gαq mutant Transgenics, cell wraps: All lines ↓ hyperactivity) is “All lines ↓”.

Consider `c1ccc(C2(N3CCCCC3)CCCCC2)cc1` [PCP, phencyclidine], for which the “locomotor activity induced by phencyclidine, heterozygotes vs wildtype” value is “increase in locomotor activity” in series [5] (10 mg/kg ip, Line 58 males, delayed in the onset); “delayed hyperactivity” in series [5] (10 mg/kg ip, Line 76 females, Line 11 males and females, to a lesser degree Line 67 females). For the same compound, the “phencyclidine locomotor activity, heterozygotes vs wildtype” value in series [5] (10 mg/kg ip, Line 67 males) is reported as “reduced”. The “phencyclidine-induced activity, heterozygotes vs wildtype” value in series [5] (10 mg/kg ip, Line 76 male (p=0.07)) is given as “slight trend toward a similar reduction”. The “Noncompetitive NMDA antagonist (PCP) Locomotor Activity” value in series [5] (Gαq mutant Transgenics, cell wraps: 4 of 5 lines ↑ hyperactivity (delayed)) is on record as 4 of 5 lines ↑.
